Experimental data from patent US20260069588A1, “VEPDEGESTRANT FOR USE IN TREATING CANCER” (Arvinas Operation, Inc., priority 2022, published 2026).
Like-named read-outs stand apart in the source and are kept apart here. Marks after values point to notes of the source that are not given here.

What was measured:
MCF7 cells = test: Live-cell imaging proliferation, MCF7; format: cell-based; settings: Homo sapiens, 144 h; MCF7, up to 6 days
Text: (§1) Full growth of the cells over this time period is shown by extent of cell confluence with dimethyl sulfoxide (DMSO).

T47D cells = test: Live-cell imaging proliferation, T47D; format: cell-based; settings: Homo sapiens, 144 h, up to 6 days
Text: as §1

hERG channel = hERG channel (Homo sapiens, UniProt Q12809); test: hERG channel inhibition; format: biochemical
hERG channel, sequence (Q12809 whole entry): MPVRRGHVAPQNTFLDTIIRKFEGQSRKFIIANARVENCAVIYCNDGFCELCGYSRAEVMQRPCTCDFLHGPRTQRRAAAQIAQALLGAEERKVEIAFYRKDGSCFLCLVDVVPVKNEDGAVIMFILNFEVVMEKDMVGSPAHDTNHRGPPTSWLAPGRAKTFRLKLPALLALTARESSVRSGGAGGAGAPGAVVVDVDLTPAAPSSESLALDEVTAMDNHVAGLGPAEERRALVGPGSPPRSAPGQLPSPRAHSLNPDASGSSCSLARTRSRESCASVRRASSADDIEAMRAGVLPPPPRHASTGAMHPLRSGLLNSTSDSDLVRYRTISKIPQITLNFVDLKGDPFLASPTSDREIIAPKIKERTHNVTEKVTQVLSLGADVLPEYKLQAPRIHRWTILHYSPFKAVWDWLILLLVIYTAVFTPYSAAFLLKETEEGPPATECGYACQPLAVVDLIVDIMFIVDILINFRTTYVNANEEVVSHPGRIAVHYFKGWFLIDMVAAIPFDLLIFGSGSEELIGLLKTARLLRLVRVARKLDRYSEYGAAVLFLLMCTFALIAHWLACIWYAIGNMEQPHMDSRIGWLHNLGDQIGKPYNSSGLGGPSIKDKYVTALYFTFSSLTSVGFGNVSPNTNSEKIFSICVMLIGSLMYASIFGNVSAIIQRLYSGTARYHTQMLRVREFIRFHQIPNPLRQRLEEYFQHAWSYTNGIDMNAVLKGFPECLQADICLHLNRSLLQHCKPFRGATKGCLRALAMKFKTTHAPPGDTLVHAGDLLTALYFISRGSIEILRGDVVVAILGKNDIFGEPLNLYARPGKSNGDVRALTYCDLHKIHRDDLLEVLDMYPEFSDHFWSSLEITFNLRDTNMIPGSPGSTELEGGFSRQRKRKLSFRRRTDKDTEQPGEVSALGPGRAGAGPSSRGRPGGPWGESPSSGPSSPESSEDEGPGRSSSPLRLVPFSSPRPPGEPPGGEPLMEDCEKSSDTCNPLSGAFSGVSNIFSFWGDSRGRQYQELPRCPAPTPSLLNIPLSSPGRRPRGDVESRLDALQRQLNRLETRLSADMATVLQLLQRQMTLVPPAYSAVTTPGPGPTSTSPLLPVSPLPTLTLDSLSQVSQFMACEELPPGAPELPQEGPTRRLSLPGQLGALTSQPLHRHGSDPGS
Description: The pivotal nonclinical safety studies were conducted in the US in accordance with GLP regulations per the US 21 CFR Part 58. These include the cardiovascular safety pharmacology study in dogs, the pivotal 28-day and 3-month repeat-dose toxicology studies in rats and dogs, and an in vitro phototoxicity assay. The bacterial reverse mutation assay, in vitro micronucleus assay, and 2 in vitro hERG studies were conducted in the UK in accordance with the UK Good Laboratory Practice Monitoring Authority, MHRA: Good Laboratory Practice Regulations 1999, Statutory Instrument 1999 No. 3106 as amended by the Good Laboratory Practice (Codification Amendments Etc.) Regulations, 2004, Statutory Instrument 2004, No. 994; and the OECD GLP and OECD Principles on Good Laboratory Practice ENV/MC/CHEM (98) 17 (Revised in 1997, Issued January 1998).accordance with the OECD Principles of Good Laboratory Practice and as accepted by Regulatory Authorities throughout the European Union, United States of America (FDA), Japan (MHLW), and other countries that are signatories to the OECD Mutual Acceptance of Data Agreement.

[1] = Interconversion (epimerization) Compound A/Compound B in animals; format: in vivo, mouse, rat, dog, and monkey
[2] = human, in vivo
clinical = settings: human, in vivo
ER = target: T1, ER (Homo sapiens, UniProt P03372); test: ER degradation in ER+ cell lines (MCF7); format: cell-based; set-up: endogenous in cells; host or cells: MCF7 (and a panel of unnamed ER+ cell lines)
T1 sequence (P03372 1-595): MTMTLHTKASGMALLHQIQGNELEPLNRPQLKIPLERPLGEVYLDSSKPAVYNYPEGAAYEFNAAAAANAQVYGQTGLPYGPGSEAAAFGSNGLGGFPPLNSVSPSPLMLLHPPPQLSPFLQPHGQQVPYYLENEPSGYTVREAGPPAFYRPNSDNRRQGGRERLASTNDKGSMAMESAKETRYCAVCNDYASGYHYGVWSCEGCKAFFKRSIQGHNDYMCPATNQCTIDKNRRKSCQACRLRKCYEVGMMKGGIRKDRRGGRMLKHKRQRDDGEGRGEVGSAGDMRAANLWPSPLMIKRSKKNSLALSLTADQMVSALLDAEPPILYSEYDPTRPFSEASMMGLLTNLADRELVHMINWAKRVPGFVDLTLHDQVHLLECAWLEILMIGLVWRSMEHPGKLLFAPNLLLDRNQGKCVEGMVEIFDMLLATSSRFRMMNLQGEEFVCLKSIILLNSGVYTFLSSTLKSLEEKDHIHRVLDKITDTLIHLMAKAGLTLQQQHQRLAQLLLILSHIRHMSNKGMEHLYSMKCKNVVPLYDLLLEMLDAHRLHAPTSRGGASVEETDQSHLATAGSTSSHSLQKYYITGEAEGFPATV

[3] = Phase 2 study of Compound A or anastrozole in early ER+/HER2− breast cancer: adverse events; settings: TEAE, Treatment Related per title; Compound A 200 mg N = 23, Anastrozole 1 mg N = 13

C[C@]12CC[C@@H]3c4ccc(O)cc4C[C@@H](CCCCCCCCC[S+]([O-])CCCC(F)(F)C(F)(F)F)[C@H]3[C@@H]1CC[C@@H]2O (stereo partly shown) [fulvestrant, reference compound]
GI50 (MCF7 cells): 0.4 nM | GI50 (T47D cells): 0.8 nM

O=C1CC[C@@H](N2Cc3cc(N4CCN(CC5CCN(c6ccc([C@@H]7c8ccc(O)cc8CC[C@@H]7c7ccccc7)cc6)CC5)CC4)ccc3C2=O)C(=O)N1 [Compound B]
IC50 (hERG channel): > 20000 nM | unbound Cmax margin to hERG IC50 (hERG channel; recommended Phase 3 dose of 200 mg): ~499 × | extent of epimerization ([1]; monkey): negligible | exposure of Compound B compared to Compound A ([1]; preclinical data): < 26% | Rac (AUCtau) ([2]; 30 mg): 7.1 | Tmax ([2]; 30 mg): 6.0 h | Rac (AUCtau) ([2]; 60 mg): 7.3 | Rac (AUCtau) ([2]; 100 mg): 6.1 ^f | Tmax ([2]; 100 mg): 6.0 h | Rac (AUCtau) ([2]; 120 mg): 5.7 | Tmax ([2]; 120 mg): 6.0 h | Rac (AUCtau) ([2]; 180 mg): 6.8 | Tmax ([2]; 180 mg): 5.9 h | Rac (AUCtau) ([2]; 200 mg): 5.1 | Tmax ([2]; 200 mg): 5.9 h | MR AUCtau ([2]; 250 mg): 0.36 | Tmax ([2]; 250 mg): 4.1 h | Rac (AUCtau) ([2]; 360 mg): 5.9 | Tmax ([2]; 360 mg): 6.0 h | Rac (AUCtau) ([2]; 500 mg): 5.9 | Tmax ([2]; 500 mg): 6.0 h | Rac (AUCtau) ([2]; 700 mg): 3.7 ^g | Tmax ([2]; 700 mg): 7.8 ^g h | half-life (clinical; 30 mg): 104 h | Tmax (clinical; 30 mg): 8 h | half-life (clinical; 60 mg): 110 h | half-life (clinical; 100 mg): 99 h | Tmax (clinical; 100 mg): 7.8 h | half-life (clinical; 120 mg): 93 h | Tmax (clinical; 120 mg): 7.8 h | half-life (clinical; 180 mg): 92 h | Tmax (clinical; 180 mg): 7.8 h | half-life (clinical; 200 mg): 85 h | Tmax (clinical; 200 mg): 7.8 h | AUC(0-t) (clinical; 250 mg, AUCtau (AUC0-8)): 179 ng·h/mL | AUC(0-t) (clinical; 250 mg, AUCtau (AUC0-12)): 7390 ng·h/mL | Tmax (clinical; 250 mg): 7.8 h | half-life (clinical; 360 mg): 96 h | Tmax (clinical; 360 mg): 7.8 h | half-life (clinical; 500 mg): 96 h | Tmax (clinical; 500 mg): 7.8 h | half-life (clinical; 700 mg): 52 h | Tmax (clinical; 700 mg): 7.8 h | Tmax (clinical): 7.8 h | ER degradation (ER): does not degrade the ER

CC(C)(C#N)c1cc(Cn2cncn2)cc(C(C)(C)C#N)c1 [Anastrozole]
Anemia [3]: 1 (7.7) n (%) | Arthralgia [3]: 1 (7.7) n (%) | Asphyxia [3]: 0 n (%) | Asthenia [3]: 0 n (%) | Blood and lymphatic system disorders [3]: 1 (7.7) n (%) | Blood uric acid increased [3]: 0 n (%) | Breast pain [3]: 0 n (%) | Cardiac disorders [3]: 0 n (%) | Constipation [3]: 1 (7.7) n (%) | Diarrhea [3]: 0 n (%) | Dyspepsia [3]: 1 (7.7) n (%) | Fatigue [3]: 0 n (%) | Gastrointestinal disorders [3]: 1 (7.7) n (%) | General disorders and administration site conditions [3]: 0 n (%) | Hematocrit decreased [3]: 1 (7.7) n (%) | Heparin-induced thrombocytopenia [3]: 0 n (%) | Hepatobiliary disorders [3]: 0 n (%) | Hot flush [3]: 0 n (%) | Hyperbilirubinemia [3]: 0 n (%) | Hypercalcemia [3]: 0 n (%) | Hyperglycemia [3]: 0 n (%) | Hypernatremia [3]: 0 n (%) | Hypertransaminasemia [3]: 0 n (%) | Hypokalemia [3]: 0 n (%) | Hyponatremia [3]: 0 n (%) | Injury, poisoning and procedural complications [3]: 0 n (%) | Insomnia [3]: 0 n (%) | Investigations [3]: 1 (7.7) n (%) | Lymphopenia [3]: 1 (7.7) n (%) | Metabolism and nutrition disorders [3]: 0 n (%) | Musculoskeletal and connective tissue disorders [3]: 1 (7.7) n (%) | Myalgia [3]: 1 (7.7) n (%) | Nervous system disorders [3]: 0 n (%) | Odynophagia [3]: 0 n (%) | Procedural pain [3]: 0 n (%) | Pruritus [3]: 0 n (%) | Psychiatric disorders [3]: 0 n (%) | Pyrexia [3]: 0 n (%) | Reproductive system and breast disorders [3]: 0 n (%) | Respiratory, thoracic and mediastinal disorders [3]: 0 n (%) | Sinus bradycardia [3]: 0 n (%) | Skin and subcutaneous tissue disorders [3]: 0 n (%) | Somnolence [3]: 0 n (%) | Stomatitis [3]: 0 n (%) | Tension [3]: 0 n (%) | Vascular disorders [3]: 0 n (%) | With Any Adverse Event [3]: 2 (15.4) n (%)
